{"source": "patent US20030162814A1", "about": "“N-substituted 1-amino-1,1-dialkylcarboxylic acid derivatives” (priority 2000, published 2003)"}
{"units": {"melting point": "°C"}}
{"smiles": "CC(=O)O.CC(C)(C)NS(=O)(=O)c1ccccc1-c1ccc(NC(=O)C(C)(C)Nc2cccc(C(=N)N)c2)cc1", "melting point": 153}
{"smiles": "CC(C)(Nc1cccc(C(=N)N)c1)C(=O)Nc1ccc(-c2ccccc2S(N)(=O)=O)cc1.O=C(O)C(F)(F)F", "melting point": 197}
{"smiles": "CC(C)(C)NS(=O)(=O)c1ccccc1-c1ccc(NC(=O)C(C)(C)Nc2cccc(C#N)c2)cc1", "note": "[CB, N-(2′-tert-butylsulfamoyl-biphenyl-4-yl)-2-(3-cyanophenylamino)-2-methylpropionamide]", "melting point": "190 to 193"}
